The results in this text go back to publication PMC9937993, “Structures of the NDP-pyranose mutase belonging to glycosyltransferase family 75 reveal residues important for Mn^2+ coordination and substrate binding” (The Journal of Biological Chemistry, 2023).

Holding throughout (assay type): binding
Assay [1] addresses MtdL (Marinactinospora thermotolerans, UniProt G8HX37, T13P). As to the kind of experiment: ITC.
In assay [2] the target is T1, MtdL (Marinactinospora thermotolerans, UniProt G8HX37).
T1 sequence (G8HX37 1-376): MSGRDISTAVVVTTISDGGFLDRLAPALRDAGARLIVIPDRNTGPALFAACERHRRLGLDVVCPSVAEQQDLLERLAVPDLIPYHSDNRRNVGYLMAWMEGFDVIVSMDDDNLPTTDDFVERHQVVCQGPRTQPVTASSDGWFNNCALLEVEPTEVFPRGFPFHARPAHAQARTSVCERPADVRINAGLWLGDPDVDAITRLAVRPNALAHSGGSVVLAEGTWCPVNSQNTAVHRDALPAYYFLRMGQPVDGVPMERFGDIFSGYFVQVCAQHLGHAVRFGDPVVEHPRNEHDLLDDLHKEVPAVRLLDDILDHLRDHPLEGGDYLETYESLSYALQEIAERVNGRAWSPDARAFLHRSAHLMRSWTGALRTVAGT
As to the kind of experiment: ITC; crystal structure of GDP·Mn2+·MtdL at […] Å.

Assay [3] concerns the target MtdL (Marinactinospora thermotolerans, UniProt G8HX37, N42D). As to the kind of experiment: ITC.

In the case of `Nc1nc2c(ncn2[C@@H]2O[C@H](COP(=O)(O)OP(=O)(O)O)[C@@H](O)[C@H]2O)c(=O)[nH]1` [GDP], the Kd on MtdL [1] is approximately 5660 nM; on MtdL [2], approximately 200 nM; at MtdL [3], approximately 1240 nM.
